pEC50: −log10 of the molar value.
Test system: Male Brown Norway rats
Assay: Antigen-induced pulmonary inflammation in a rat asthma model (eosinophils and Th2 cytokines in BALF)
Assay type: in vivo
Details: 0.1 mg/kg intratracheally 24 hours before and 24 hours after OVA-challenge, BALF 48 hours after challenge
Procedure: Rats were sensitized and challenged to produce allergic airway inflammation in a similar manner to that described by Underwood et al (British Journal of Pharmacology 2002; 137: 263-275, 2002). Male Brown Norway rats were sensitized subcutaneously with ovalbumin (OVA) and aluminum hydroxide on day 0, and challenged with aerosolized OVA solution on day 14. The test compound was administered twice intratracheally 24 hours before and 24 hours after the OVA-challenge and bronchoalveolar lavage fluid (BALF) was collected 48 hours after the OVA-challenge. Then eosinophils and Th2 cytokines (IL-5 and IL-13) in the BALF were measured to evaluate efficacy of the test compounds of this invention.

| Structure (SMILES) | Eosinophiles in BALF, inhibition (%) to OVA-Challenge control [%] | IL-5 in BALF, inhibition (%) to OVA-Challenge control [%] | IL-13 in BALF, inhibition (%) to OVA-Challenge control [%] |
| --- | --- | --- | --- |
| CCCCc1nc2c(N)nc3ccccc3c2n1CCCN(Cc1cccc(OCC(=O)OC)c1)C(=O)CN(C)C [Example 9, Methyl (3-{[[3-(4-amino-2-butyl-1H-imidazo[4,5-c]quinolin-1-yl)propyl](N,N-dimethylglycyl)amino]methyl}phenoxy)acetate] | 53 | 66 | 89 |

Same assay, conditions: 1.0 mg/kg intratracheally 24 hours before and 24 hours after OVA-challenge, BALF 48 hours after challenge

| Structure (SMILES) | Eosinophiles in BALF, inhibition (%) to OVA-Challenge control [%] | IL-5 in BALF, inhibition (%) to OVA-Challenge control [%] | IL-13 in BALF, inhibition (%) to OVA-Challenge control [%] |
| --- | --- | --- | --- |
| CCCCc1nc2c(N)nc3ccccc3c2n1CCCN(Cc1cccc(OCC(=O)OC)c1)C(=O)CN(C)C [Example 9, Methyl (3-{[[3-(4-amino-2-butyl-1H-imidazo[4,5-c]quinolin-1-yl)propyl](N,N-dimethylglycyl)amino]methyl}phenoxy)acetate] | 77 | 72 | 85 |

Biological target: T1, human TLR7 (Homo sapiens, UniProt Q9NYK1)
T1 construct: expressed in transfected cells; host or cells: HEK293 cell line stably expressing the pNiFty2-SEAP reporter plasmid; TLR7 in pUNO vector, blasticidin selection
T1 sequence (Q9NYK1 27-1049): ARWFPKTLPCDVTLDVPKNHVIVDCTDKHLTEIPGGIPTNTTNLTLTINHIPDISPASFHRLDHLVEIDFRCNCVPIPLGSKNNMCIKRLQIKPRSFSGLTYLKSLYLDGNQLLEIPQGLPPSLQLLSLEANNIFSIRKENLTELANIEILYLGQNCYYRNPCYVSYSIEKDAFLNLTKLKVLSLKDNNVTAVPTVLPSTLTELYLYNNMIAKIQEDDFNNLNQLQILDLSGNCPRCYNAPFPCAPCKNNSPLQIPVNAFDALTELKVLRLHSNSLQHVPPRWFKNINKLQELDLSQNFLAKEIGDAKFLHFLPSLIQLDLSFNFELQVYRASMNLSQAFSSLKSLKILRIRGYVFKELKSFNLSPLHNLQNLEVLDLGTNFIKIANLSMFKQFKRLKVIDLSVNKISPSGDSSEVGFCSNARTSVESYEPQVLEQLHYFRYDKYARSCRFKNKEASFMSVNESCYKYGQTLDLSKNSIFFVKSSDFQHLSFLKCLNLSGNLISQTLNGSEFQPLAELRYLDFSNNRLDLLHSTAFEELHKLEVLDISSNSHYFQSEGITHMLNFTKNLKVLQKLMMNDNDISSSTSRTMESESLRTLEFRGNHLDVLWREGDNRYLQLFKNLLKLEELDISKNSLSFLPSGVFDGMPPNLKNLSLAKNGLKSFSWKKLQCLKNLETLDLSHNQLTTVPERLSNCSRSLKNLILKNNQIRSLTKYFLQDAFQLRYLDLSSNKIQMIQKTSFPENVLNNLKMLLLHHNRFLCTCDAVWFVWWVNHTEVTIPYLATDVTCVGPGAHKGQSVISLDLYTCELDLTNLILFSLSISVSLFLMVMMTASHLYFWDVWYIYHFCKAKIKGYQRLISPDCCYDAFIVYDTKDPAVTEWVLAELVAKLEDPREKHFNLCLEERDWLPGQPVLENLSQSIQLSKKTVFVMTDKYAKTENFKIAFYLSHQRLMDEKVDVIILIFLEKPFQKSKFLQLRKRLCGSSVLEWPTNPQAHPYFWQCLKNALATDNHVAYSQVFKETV
Assay: Human TLR7 Assay (SEAP reporter in HEK293 cells);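 further: Read-out is secreted alkaline phosphatase made under an NFkB/ELAM-1 composite promoter, reporting TLR7-triggered NFkB activation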
Assay type: cell-based
Details: HEK293 cell line expressing human TLR7 and pNiFty2-SEAP reporter, overnight incubation at 37° C., 0.1% DMSO; read-out: hTLR7 EC50
Excerpt: The most common variant sequence of human TLR7 (represented by the EMBL sequence AF240467) was cloned into the mammalian cell expression vector pUNO and transfected into a HEK293 cell line already stably expressing the pNiFty2-SEAP reporter plasmid; integration of the reporter gene was maintained by selection with the antibiotic zeocin. Transfectants with stable TLR7 expression were selected using the antibiotic blasticidin. In this reporter cell-line, expression of secreted alkaline phosphatase (SEAP) is controlled by an NFkB/ELAM-1 composite promoter comprising five NFkB sites combined with the proximal ELAM-1 promoter. TLR signaling leads to the translocation of NFkB and activation of the promoter results in expression of the SEAP gene. TLR7-specific activation was assessed by determining the level of SEAP produced following overnight incubation of the cells at 37° C. with the standard compound in the presence of 0.1% (v/v) dimethylsulfoxide (DMSO). Concentration dependent induction of SEAP production by compounds was expressed as the concentration of compound which produced half of the maximal level of SEAP induction for that compound (EC50).

| Structure (SMILES) | pEC50 |
| --- | --- |
| CCCCc1nc2c(N)nc3ccccc3c2n1CCCN(Cc1cccc(OCC(=O)OC(C)C)c1F)C(=O)CN(CC)CC [Example 164, Isopropyl 2-[3-({N-[3-(4-amino-2-butyl-1H-imidazo[4,5-c]quinolin-1-yl)propyl]-2-(diethylamino)acetamido}methyl)-2-fluorophenoxy]acetate] | 6.80 |
| CCN(CC)CC(=O)N(CCCn1c(CCOC)nc2c(N)nc3ccccc3c21)Cc1ccc(OC)c(OCC(=O)OC)c1 [Example 63, Methyl 2-{5-[(N-{3-[4-amino-2-(2-methoxyethyl)-1H-imidazo[4,5-c]quinolin-1-yl]propyl}-2-{diethylamino}acetamido)methyl]-2-methoxyphenoxy}acetate] | 6.67 |
| CCCCc1nc2c(N)nc3ccccc3c2n1CCCN(Cc1ccc(OCC(=O)OC)cc1)C(=O)CN1CCN(C)CC1 [Example 7, Methyl [4-({[3-(4-amino-2-butyl-1H-imidazo[4,5-c]quinolin-1-yl)propyl][(4-methylpiperazin-1-yl)acetyl]amino}methyl)phenoxy]acetate] | 6.20 |
| COCCc1nc2c(N)nc3ccccc3c2n1CCCCN(CCCN1CCOCC1)Cc1cccc(OCC(=O)OC(C)C)c1 [Example 133, Isopropyl 2-{3-[({4-[4-amino-2-(2-methoxyethyl)-1H-imidazo[4,5-c]quinolin-1-yl]butyl}{3-morpholinopropyl}amino)methyl]phenoxy}acetate] | 6.94 |
| CCOC(=O)COc1cc(CN(CCCCn2c(CCOC)nc3c(N)nc4ccccc4c32)C(=O)NCCN2CCCCC2)ccc1F [Example 140, Ethyl 2-{5-[(1-{4-[4-amino-2-(2-methoxyethyl)-1H-imidazo[4,5-c]quinolin-1-yl]butyl}-3-{2-(piperidin-1-yl)ethyl}ureido)methyl]-2-fluorophenoxy}acetate] | 7.10 |
| COCCc1nc2c(N)nc3ccccc3c2n1CCCN(Cc1cccc(OCC(=O)OC)c1)C(=O)CN1CCN(C)CC1 [Example 18, Methyl (3-{[[3-(4-amino-2-(2-methoxyethyl)-1H-imidazo[4,5-c]quinolin-1-yl)propyl][(4-methylpiperazin-1-yl)acetyl]amino]methyl}phenoxy)acetate] | 5.89 |
| CCCCc1nc2c(N)nc3ccccc3c2n1CCCN(Cc1ccc(OCC(=O)OC)cc1)C(=O)CN1CCN(CCOC)CC1 [Example 8, Methyl {4-[([3-(4-amino-2-butyl-1H-imidazo[4,5-c]quinolin-1-yl)propyl]{[4-(2-methoxyethyl)piperazin-1-yl]acetyl}amino)methyl]phenoxy}acetate] | 6.04 |
| CCOCc1nc2c(N)nc3ccccc3c2n1CCCN(Cc1cccc(OC(C)(C)C(=O)OCC)c1)C(=O)CN1CCCC1 [Example 170, Ethyl 2-{3-[(N-{3-[4-amino-2-(ethoxymethyl)-1H-imidazo[4,5-c]quinolin-1-yl]propyl}-2-{pyrrolidin-1-yl}acetamido)methyl]phenoxy}-2-methylpropanoate] | 6.28 |
| CCN(CC)CC(=O)N(CCCn1c(CCOC)nc2c(N)nc3ccccc3c21)Cc1ccc(OCC(=O)OC)cc1 [Example 36, Methyl 2-{4-[(N-{3-[4-amino-2-(2-methoxyethyl)-1H-imidazo[4,5-c]quinolin-1-yl]propyl}-2-(diethylamino)acetamido)methyl]phenoxy}acetate] | 7.07 |
| COCCc1nc2c(N)nc3ccccc3c2n1CCCN(Cc1cccc(OCC(=O)OC(C)C)c1)C(=O)CN(C)C [Example 113, Isopropyl 2-{3-[(N-{3-[4-amino-2-(2-methoxyethyl)-1H-imidazo[4,5-c]quinolin-1-yl]propyl}-2-{dimethylamino}acetamido)methyl]phenoxy}acetate] | 7.08 |
| CCCCc1nc2c(N)nc3ccccc3c2n1CCCN(Cc1ccc(OCC(=O)OC)cc1)C(=O)CN(C)C [Example 5, Methyl (4-{[[3-(4-amino-2-butyl-1H-imidazo[4,5-c]quinolin-1-yl)propyl](N,N-dimethylglycyl)amino]methyl}phenoxy)acetate] | 6.61 |
| CCOC(=O)C1(Oc2cccc(CN(CCCn3c(CCOC)nc4c(N)nc5ccccc5c43)C(=O)CN(CC)CC)c2)CCC1 [Example 59, Ethyl 1-{3-[(N-{3-[4-amino-2-(2-methoxyethyl)-1H-imidazo[4,5-c]quinolin-1-yl]propyl}-2-{diethylamino}acetamido)methyl]phenoxy}cyclobutanecarboxylate] | 7.16 |
| CCOCc1nc2c(N)nc3ccccc3c2n1CCCN(Cc1cccc(OCC(=O)OC(C)C)c1)C(=O)CN1CCCC1 [Example 172, Isopropyl 2-{3-[(N-{3-[4-amino-2-(ethoxymethyl)-1H-imidazo[4,5-c]quinolin-1-yl]propyl}-2-{pyrrolidin-1-yl}acetamido)methyl]phenoxy}acetate] | 6.36 |

Second part, the compound after the results:

| pEC50 | Structure (SMILES) |
| --- | --- |
| 7.17 | CCN(C)CC(=O)N(CCCn1c(CCOC)nc2c(N)nc3ccccc3c21)Cc1cccc(OCC(=O)OC(C)C)c1 [Example 114, Isopropyl 2-{3-[(N-{3-[4-amino-2-(2-methoxyethyl)-1H-imidazo[4,5-c]quinolin-1-yl]propyl}-2-{ethyl(methyl)amino}acetamido]methyl)phenoxy}acetate] |
| 7.25 | COCCc1nc2c(N)nc3ccccc3c2n1CCCCN(CCN(C)C)Cc1cccc(OCC(=O)OC(C)C)c1 [Example 132, Isopropyl 2-{3-[({4-[4-amino-2-(2-methoxyethyl)-1H-imidazo[4,5-c]quinolin-1-yl]butyl}{2-[dimethylamino]ethyl}amino)methyl]phenoxy}acetate] |
| 7.33 | CCOC(=O)COc1cccc(CN(CCCCn2c(CCOC)nc3c(N)nc4ccccc4c32)C(=O)NCCN2CCCCC2)c1 [Example 126, Ethyl 2-{3-[(1-{4-[4-amino-2-(2-methoxyethyl)-1H-imidazo[4,5-c]quinolin-1-yl]butyl}-3-{2-(piperidin-1-yl)ethyl}ureido)methyl]phenoxy}acetate] |
| 7.39 | CCOC(=O)COc1cc(F)cc(CN(CCCn2c(CCOC)nc3c(N)nc4ccccc4c32)C(=O)CN(CC)CC)c1 [Example 124, Ethyl 2-{3-[(N-{3-[4-amino-2-(2-methoxyethyl)-1H-imidazo[4,5-c]quinolin-1-yl]propyl}-2-{diethylamino}acetamido)methyl]-5-fluorophenoxy}acetate] |
| 7.43 | CCOC(=O)COc1ccc(CN(CCN2CCCCC2)C(=O)NCCCCn2c(CCOC)nc3c(N)nc4ccccc4c32)cc1 [Example 131, Ethyl 2-{4-[(3-{4-[4-amino-2-(2-methoxyethyl)-1H-imidazo[4,5-c]quinolin-1-yl]butyl}-1-{2-(piperidin-1-yl)ethyl}ureido)methyl]phenoxy}acetate] |
| 7.56 | CCOC(=O)COc1cc(CN(CCCn2c(CCOC)nc3c(N)nc4ccccc4c32)C(=O)CN(CC)CC)ccc1C [Example 66, Ethyl 2-{5-[(N-{3-[4-amino-2-(2-methoxyethyl)-1H-imidazo[4,5-c]quinolin-1-yl]propyl}-2-{diethylamino}acetamido)methyl]-2-methylphenoxy}acetate] |
